Measurements reported in ChEMBL document CHEMBL2177061, “Factors influencing the specificity of inhibitor binding to the human and malaria parasite dihydroorotate dehydrogenases” (J Med Chem, 2012).
Where a chain is given by its changes, count along the chain named.

Tests used:
[1] = tested on: T1, Dihydroorotate dehydrogenase (quinone), mitochondrial (Plasmodium falciparum (isolate 3D7)), Q08210 [C276A]; experiment: Inhibition of Plasmodium falciparum […] dehydrogenase C276A mutant expressed in Escherichia coli BL21(DE3) using […] as substrate at 100 uM by DCIP-based colorimetric analysis
T1 sequence (whole entry): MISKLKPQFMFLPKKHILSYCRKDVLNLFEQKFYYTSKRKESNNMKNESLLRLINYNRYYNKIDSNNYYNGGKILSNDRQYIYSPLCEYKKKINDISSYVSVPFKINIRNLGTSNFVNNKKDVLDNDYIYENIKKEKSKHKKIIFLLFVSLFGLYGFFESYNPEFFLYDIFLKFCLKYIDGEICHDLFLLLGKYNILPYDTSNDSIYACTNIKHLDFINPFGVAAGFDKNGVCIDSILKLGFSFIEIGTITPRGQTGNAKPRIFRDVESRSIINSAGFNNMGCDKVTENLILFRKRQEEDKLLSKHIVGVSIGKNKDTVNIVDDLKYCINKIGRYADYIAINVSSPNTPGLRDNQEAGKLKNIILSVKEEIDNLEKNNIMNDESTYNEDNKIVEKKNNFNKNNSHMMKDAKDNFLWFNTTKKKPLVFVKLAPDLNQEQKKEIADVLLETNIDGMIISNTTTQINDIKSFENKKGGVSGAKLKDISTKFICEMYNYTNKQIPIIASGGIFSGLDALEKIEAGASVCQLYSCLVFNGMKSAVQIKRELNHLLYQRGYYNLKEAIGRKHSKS

Homo sapiens = species: Homo sapiens; experiment: Ratio of IC50 for human dihydrofolate dehydrogenase Y147A mutant to IC50 for human wild type dihydrofolate dehydrogenase
[2] = tested on: T2, Dihydroorotate dehydrogenase (quinone), mitochondrial (Plasmodium falciparum (isolate 3D7)), Q08210 [F188Y]; experiment: Inhibition of Plasmodium falciparum […] dehydrogenase F188Y mutant expressed in Escherichia coli BL21(DE3) using […] as substrate at 100 uM by DCIP-based colorimetric analysis
T2 sequence (whole entry): T1 sequence (whole entry) with F188Y, A276C

Q: Which results are given for `CCc1cc(O)n2nc(SCc3cc(Cl)ccc3Cl)nc2n1`?
A: inhibition [1]: < 50%; Ratio IC50 (Homo sapiens): 16; inhibition [2]: < 50%
